Experimental data: US12186330B2, “Compositions for improving cell viability and methods of use thereof” (Amylyx Pharmaceuticals Inc., priority 2013, dated 2025)
Values joined by “and” are separate entries in the source; they are usually repeats but may differ in a detail not shown here. Equal entries are not always repeated.

Key:
[1] = system: rat cortical neuron culture; experiment: Cell viability by PrestoBlue after hydrogen peroxide exposure, peroxide exposure neuronal cell model; assay type: cell-based; details: for protection of cell viability against peroxide exposure (FIG. 1, significance): PrestoBlue, H2O2 exposure, rat cortical neuron culture
Method: (§1) Cortical mixed cultures were prepared from E18 Wistar rat embryos (Laboratory Animal Center, Kuopio, Finland). The cortices were dissected out and the tissue was cut to small pieces. The cells were separated by 15-min incubation with DNase and papain. The cells were collected by centrifugation (1500 rpm, 5 min). The tissue was triturated with a pipette and the cells were plated (3×10^5 cells/cm^2) on poly-L-lysine coated 48 wells in MEM supplemented with 2 g/l glucose, 2 mM glutamine, 0.1 μg/ml gentamicin, and 10% heat-inactivated horse serum (HS-HI) and […] bovine serum (FBS-HI). After three days in vitro, medium containing MEM with supplements and 5% both sera was changed to the cells. On day 6 in vitro, the unwanted cell division was inhibited by adding cytosine arabinoside (10 μM final concentration) for 24 h. The cultures were refed with MEM with supplements and 5% HS-HI before experiments.
(§2) The wells in good shape were chosen for experiment on day 10 in vitro. Test compounds were diluted in MEM with supplements and 5% HS-HI. 24 h later, 300 μM NMDA for 24 h was used as a control for total neuronal death, and H2O2 for 1 h was used to induce approximately 30-60% cell death. DFX (100 μM) was used as a potential positive control for inhibition of H2O2-induced cell death. Wells treated with medium only served as 0-control. Test compounds were pipetted to the cells 24 h before adding H2O2. After 60 min, the medium was removed and media containing the compounds was pipetted to the wells for 24 h.
After the cell culture medium was collected for LDH measurement, 100 μl PrestoBlue solution (1:10 dilution of PrestoBlue reagent (Invitrogen, # A13261, lot 915815C) in culture medium) was added to the wells for 1 h incubation at +37° C. CO2 incubator. Fluorescence at 560 nm excitation/615 nm emission was measured using Victor fluororeader (PerkinElmer).
(§3) The number of wells per compound concentration used was 6 (n=6). One (1) concentration of 100 μM TUDCA and 1 mM 4-PBA separately and together were studied. Statistical analysis were calculated on Microsoft excel. The values were analyzed two-tailed, equal variance t-tests comparing all conditions to all other conditions.

[2] = system: rat cortical neuron culture; experiment: Cell death by LDH release after hydrogen peroxide exposure, peroxide exposure neuronal cell model; assay type: cell-based; details: for Cell Death Evaluated By LDH Following H2O2 Exposure, Average (%): compounds added 24 h before and for 24 h after, TUDCA 100 uM, 4-PBA 1 mM, DFX 100 uM, n=6, No Treatment = 0%; for protection against cell death after peroxide exposure (FIG. 2, significance): LDH, H2O2 exposure, rat cortical neuron culture
Method: as §1, §2
After 24 h the culture media of all wells was collected and possible cell debris was removed by centrifugation (13 000 rpm, 3 min). A-100-μl aliquot was pipetted into a micro titer plate as duplicates, and equal amount of LDH reagent was pipetted to the wells. The absorbance at 340 nm was measured immediately using a 3-min kinetic measurement protocol in Multiskan Ascent ELISA reader (Thermo, Finland). The change in absorbance/min was determined, which is directly proportional to the released LDH (=cell death).
as §3

[3] = H2O2 40 uM for 1 h, compounds added 24 h before and for 24 h after, TUDCA 100 uM, 4-PBA 1 mM, DFX 100 uM, n=6, No Treatment = 100%
[4] = Rattus norvegicus, Cortical neurone, H2O2 40 uM for 1 h, compounds added 24 h before and for 24 h after, TUDCA 100 uM, 4-PBA 1 mM, DFX 100 uM, n=6, No Treatment = 100%, read-out: Cell Viability Evaluated By PrestoBlue Following H2O2 Exposure, Average (%)

SMILES	Cell Viability Evaluated By PrestoBlue Following H2O2 Exposure, Average (%) [1, 3] [%]	protection of cell viability against peroxide exposure (FIG. 1, significance) [1]	viability at 1000 µM [1, 4] [%]	Cell Death Evaluated By LDH Following H2O2 Exposure, Average (%) ([2]; H2O2 40 uM for 1 h)	protection against cell death after peroxide exposure (FIG. 2, significance) [2]	viability at 40 µM ([1]; Rattus norvegicus, Cortical neurone, 1 h, H2O2 40 uM for 1 h, no test compound (the text's 'control'), read-out: Cell Viability Evaluated By PrestoBlue, Average (%), H2O2 exposure alone) [%]	Cell Death Evaluated By LDH, Average (%), H2O2 exposure alone ([2]; H2O2 40 uM for 1 h, no test compound (the text's 'control')) [%]	Cell Death Evaluated By LDH, Average (%), NMDA negative control ([2]; NMDA 300 uM for 24 h, control for total neuronal death) [%]	viability at 100 µM [1, 4] [%]
O=C(O)CCCc1ccccc1 [4-PBA, 4-phenylbutyric acid]	72.20	does not provide significant protection	72	46.5% and 46.47%	does not provide significant protection				
OO [H2O2, hydrogen peroxide]						48.6	62.48		
CN[C@H](CC(=O)O)C(=O)O [NMDA]								100	
C[C@H](CCC(=O)NCCS(=O)(=O)O)[C@H]1CC[C@H]2[C@@H]3[C@@H](O)C[C@@H]4C[C@H](O)CC[C@]4(C)[C@H]3CC[C@]12C [TUDCA, tauroursodeoxycholic acid]	58.59	does not provide significant protection		60.4% and 60.37%	does not provide significant protection				59
